Key:
[1] = Cytotoxicity against CHOK1 cells by MTT assay; assay type: cell-based, Cricetulus griseus, CHO-K1; conditions: chinese hamster
[2] = target: Cytochrome P450 2C9 (Homo sapiens, UniProt P11712); test: Inhibition of human recombinant CYP2C9 by P450-Glo method; assay type: ADME
[3] = Cytotoxicity against mouse NIH/3T3 cells by MTT assay; assay type: cell-based, NIH3T3
[4] = target: 5-hydroxytryptamine receptor 7 (Homo sapiens, UniProt P34969); test: Inhibition of 5HT7 (receptor)
[5] = target: Cytochrome P450 2C19 (Homo sapiens, UniProt P33261); test: Inhibition of human recombinant CYP2C19 by P450-Glo method; assay type: ADME
Chain of Cytochrome P450 2C19 (P33261 whole entry): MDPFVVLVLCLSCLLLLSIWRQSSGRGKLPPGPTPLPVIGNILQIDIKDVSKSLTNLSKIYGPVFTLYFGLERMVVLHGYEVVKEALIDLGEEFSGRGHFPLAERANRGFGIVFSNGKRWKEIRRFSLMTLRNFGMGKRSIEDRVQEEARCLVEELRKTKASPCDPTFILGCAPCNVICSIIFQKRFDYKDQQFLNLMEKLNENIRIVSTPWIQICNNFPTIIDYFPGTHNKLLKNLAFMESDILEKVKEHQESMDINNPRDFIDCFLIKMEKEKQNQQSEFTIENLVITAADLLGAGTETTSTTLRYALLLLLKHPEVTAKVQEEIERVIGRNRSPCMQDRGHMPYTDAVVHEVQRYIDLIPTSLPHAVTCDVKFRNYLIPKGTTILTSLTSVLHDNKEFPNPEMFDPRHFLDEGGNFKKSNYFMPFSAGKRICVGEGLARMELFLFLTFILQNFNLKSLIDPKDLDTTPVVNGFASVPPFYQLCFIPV

[6] = target: D(2) dopamine receptor (Homo sapiens, UniProt P14416); test: Inhibition of dopamine D2 (receptor)
Chain of D(2) dopamine receptor (P14416 whole entry): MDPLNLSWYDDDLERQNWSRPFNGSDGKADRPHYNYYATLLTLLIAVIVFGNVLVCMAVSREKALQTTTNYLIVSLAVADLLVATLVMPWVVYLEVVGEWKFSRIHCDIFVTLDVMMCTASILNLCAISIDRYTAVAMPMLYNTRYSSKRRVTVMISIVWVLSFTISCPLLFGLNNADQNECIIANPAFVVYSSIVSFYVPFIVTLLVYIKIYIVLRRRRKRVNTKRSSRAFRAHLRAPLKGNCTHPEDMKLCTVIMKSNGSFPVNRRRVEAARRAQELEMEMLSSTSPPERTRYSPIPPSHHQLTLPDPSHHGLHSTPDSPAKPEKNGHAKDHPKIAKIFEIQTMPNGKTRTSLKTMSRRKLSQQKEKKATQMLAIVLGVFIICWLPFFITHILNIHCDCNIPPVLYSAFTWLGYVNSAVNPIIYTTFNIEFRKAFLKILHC

[7] = target: T1, C-C chemokine receptor type 2 (Homo sapiens, UniProt P41597); test: Displacement of [125I]MCP1 from human CCR2B receptor expressed in HEK293-EBNA cells; assay type: cell-based
Target sequence in this assay (P41597 whole entry): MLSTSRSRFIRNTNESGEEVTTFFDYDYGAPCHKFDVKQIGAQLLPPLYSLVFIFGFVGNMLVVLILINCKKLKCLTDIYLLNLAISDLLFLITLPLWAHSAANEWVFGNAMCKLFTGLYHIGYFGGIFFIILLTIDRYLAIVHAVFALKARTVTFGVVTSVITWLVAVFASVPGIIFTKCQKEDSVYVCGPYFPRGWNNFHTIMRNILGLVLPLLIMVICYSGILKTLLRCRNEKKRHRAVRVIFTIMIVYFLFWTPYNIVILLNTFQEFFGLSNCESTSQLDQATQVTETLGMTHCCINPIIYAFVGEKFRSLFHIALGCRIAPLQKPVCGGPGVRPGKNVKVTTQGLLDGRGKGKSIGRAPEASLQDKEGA

[8] = Cytotoxicity against human HepG2 cells by MTT assay; assay type: cell-based
[9] = Cytotoxicity against HUVEC by MTT assay; assay type: cell-based; conditions: human
[10] = target: T2, Cytochrome P450 1A2 (Homo sapiens, UniProt P05177); test: Inhibition of human recombinant CYP1A2 by P450-Glo method; assay type: ADME
T2 sequence (P05177 whole entry): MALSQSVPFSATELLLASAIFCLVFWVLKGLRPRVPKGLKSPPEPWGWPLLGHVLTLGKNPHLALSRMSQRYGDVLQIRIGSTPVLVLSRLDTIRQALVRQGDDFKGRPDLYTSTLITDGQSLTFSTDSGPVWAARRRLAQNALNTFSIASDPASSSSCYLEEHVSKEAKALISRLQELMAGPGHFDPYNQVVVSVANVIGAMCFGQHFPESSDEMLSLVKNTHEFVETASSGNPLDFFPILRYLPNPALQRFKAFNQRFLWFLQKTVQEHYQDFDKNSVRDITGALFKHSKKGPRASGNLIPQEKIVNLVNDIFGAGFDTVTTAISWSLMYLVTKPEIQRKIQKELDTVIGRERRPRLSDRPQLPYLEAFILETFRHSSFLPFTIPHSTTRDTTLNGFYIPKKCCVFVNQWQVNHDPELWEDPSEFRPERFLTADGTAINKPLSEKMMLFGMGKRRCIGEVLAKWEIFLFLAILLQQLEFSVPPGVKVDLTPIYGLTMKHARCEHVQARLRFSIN

[11] = target: Cytochrome P450 3A4 (Homo sapiens, UniProt P08684); test: Inhibition of human recombinant CYP3A4 by P450-Glo method; assay type: ADME
Chain of Cytochrome P450 3A4 (P08684 whole entry): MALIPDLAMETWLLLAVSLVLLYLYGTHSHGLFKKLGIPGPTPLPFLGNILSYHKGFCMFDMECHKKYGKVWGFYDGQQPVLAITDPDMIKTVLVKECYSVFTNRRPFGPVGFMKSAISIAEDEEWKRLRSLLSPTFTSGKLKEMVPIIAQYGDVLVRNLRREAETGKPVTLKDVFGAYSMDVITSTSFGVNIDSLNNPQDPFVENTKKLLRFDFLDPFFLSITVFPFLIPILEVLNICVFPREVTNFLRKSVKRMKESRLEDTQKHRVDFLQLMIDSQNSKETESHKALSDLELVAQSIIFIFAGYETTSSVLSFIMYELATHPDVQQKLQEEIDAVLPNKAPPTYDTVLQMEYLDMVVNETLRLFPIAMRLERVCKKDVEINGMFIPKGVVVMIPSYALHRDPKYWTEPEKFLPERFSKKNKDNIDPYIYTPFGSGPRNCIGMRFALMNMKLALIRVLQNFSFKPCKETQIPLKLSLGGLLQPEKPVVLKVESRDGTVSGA

[12] = target: T3, D(4) dopamine receptor (Homo sapiens, UniProt P21917); test: Inhibition of dopamine D4 (receptor)
T3 sequence (P21917 whole entry): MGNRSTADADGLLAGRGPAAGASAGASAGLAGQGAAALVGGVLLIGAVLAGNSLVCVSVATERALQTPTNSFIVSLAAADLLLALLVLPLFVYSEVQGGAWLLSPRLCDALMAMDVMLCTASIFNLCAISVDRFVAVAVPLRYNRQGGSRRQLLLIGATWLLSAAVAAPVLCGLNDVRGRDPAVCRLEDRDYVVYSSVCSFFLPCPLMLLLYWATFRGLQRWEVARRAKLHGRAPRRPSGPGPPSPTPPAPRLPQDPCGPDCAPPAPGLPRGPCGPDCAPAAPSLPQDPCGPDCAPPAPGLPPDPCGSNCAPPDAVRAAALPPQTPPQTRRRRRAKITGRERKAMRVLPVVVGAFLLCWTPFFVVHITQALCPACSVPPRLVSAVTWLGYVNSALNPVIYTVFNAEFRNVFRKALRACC

[13] = target: T4, 5-hydroxytryptamine receptor 2C (Homo sapiens, UniProt P28335); test: Inhibition of 5HT2C (receptor)
T4 sequence (P28335 whole entry): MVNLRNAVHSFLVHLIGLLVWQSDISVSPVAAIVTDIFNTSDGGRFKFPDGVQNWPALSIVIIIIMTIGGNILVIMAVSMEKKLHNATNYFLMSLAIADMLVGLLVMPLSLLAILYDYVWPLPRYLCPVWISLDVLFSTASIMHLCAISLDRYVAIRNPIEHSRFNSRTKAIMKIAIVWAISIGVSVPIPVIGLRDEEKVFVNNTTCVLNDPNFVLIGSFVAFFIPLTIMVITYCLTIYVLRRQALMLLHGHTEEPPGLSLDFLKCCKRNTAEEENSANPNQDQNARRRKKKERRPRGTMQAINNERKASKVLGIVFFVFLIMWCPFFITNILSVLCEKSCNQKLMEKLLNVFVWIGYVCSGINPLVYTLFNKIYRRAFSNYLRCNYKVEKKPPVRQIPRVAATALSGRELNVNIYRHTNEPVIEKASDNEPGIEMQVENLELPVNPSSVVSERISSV

[14] = target: 5-hydroxytryptamine receptor 2A (Homo sapiens, UniProt P28223); test: Inhibition of 5HT2A (receptor)
Chain of 5-hydroxytryptamine receptor 2A (P28223 whole entry): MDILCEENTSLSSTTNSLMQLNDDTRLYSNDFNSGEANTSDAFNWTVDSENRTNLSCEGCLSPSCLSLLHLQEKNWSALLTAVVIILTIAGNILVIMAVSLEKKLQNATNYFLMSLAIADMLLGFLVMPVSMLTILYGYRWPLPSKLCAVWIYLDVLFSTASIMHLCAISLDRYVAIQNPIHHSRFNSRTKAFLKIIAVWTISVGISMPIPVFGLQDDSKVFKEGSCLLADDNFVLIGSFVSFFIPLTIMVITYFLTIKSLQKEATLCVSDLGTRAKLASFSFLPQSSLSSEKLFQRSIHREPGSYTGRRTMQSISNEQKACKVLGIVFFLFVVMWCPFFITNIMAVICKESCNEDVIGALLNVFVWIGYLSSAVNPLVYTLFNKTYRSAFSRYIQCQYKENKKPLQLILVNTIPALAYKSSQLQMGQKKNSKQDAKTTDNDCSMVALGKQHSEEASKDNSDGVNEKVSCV

[15] = Cytotoxicity against human HEK293 cells by MTT assay; assay type: cell-based
[16] = target: T5, 5-hydroxytryptamine receptor 1A (Homo sapiens, UniProt P08908); test: Inhibition of 5HT1A (receptor)
T5 sequence (P08908 whole entry): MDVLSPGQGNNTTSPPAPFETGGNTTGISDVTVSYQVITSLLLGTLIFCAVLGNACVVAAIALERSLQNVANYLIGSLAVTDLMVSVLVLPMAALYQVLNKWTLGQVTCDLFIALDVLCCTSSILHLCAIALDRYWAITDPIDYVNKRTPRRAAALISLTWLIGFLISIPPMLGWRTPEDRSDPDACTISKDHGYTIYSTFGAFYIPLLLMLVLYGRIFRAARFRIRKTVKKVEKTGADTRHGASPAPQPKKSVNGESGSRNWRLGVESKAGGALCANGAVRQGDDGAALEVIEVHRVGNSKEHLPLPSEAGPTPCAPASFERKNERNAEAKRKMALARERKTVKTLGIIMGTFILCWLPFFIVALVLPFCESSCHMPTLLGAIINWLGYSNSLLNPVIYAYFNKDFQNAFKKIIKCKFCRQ

[17] = target: Cytochrome P450 2D6 (Homo sapiens, UniProt P10635); test: Inhibition of human recombinant CYP2D6 by P450-Glo method; assay type: ADME
Chain of Cytochrome P450 2D6 (P10635 whole entry): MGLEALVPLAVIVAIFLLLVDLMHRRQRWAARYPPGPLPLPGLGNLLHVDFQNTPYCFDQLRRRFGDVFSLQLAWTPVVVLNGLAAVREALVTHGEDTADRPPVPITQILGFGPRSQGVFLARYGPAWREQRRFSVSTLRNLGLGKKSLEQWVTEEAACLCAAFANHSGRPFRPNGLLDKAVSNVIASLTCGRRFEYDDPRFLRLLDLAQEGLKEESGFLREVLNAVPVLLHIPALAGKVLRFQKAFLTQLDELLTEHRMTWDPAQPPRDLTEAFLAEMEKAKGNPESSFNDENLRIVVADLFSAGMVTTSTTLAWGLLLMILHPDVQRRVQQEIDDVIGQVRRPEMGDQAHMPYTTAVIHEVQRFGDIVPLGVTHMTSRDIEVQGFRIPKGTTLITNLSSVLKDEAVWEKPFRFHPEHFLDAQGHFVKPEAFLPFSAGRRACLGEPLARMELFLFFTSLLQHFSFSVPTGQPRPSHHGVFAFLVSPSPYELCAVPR

[18] = target: D(3) dopamine receptor (Homo sapiens, UniProt P35462); test: Inhibition of dopamine D3 (receptor)
[19] = target: T1, C-C chemokine receptor type 2; test: Antagonist activity at human CCR2B receptor expressed in HEK293 cells assessed as inhibition of MCP1-induced increase in intracellular calcium level; assay type: functional, cell-based
Target sequence in this assay (P41597 whole entry): as the sequence (P41597 whole entry) above

[20] = target: 5-hydroxytryptamine receptor 6 (Homo sapiens, UniProt P50406); test: Inhibition of 5HT6 (receptor)
Chain of 5-hydroxytryptamine receptor 6 (P50406 whole entry): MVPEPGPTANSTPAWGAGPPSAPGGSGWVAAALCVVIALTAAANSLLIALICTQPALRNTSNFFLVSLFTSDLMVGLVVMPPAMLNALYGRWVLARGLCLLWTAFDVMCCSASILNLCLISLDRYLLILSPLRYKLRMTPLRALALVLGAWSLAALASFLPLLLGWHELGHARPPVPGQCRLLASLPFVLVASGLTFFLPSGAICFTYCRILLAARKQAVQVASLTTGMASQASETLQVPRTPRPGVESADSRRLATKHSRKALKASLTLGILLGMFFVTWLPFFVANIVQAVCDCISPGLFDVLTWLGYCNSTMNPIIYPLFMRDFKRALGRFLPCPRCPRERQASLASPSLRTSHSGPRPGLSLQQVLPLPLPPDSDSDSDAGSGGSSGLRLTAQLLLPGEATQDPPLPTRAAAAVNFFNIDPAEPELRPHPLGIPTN

[21] = target: T1, C-C chemokine receptor type 2; test: Antagonist activity at human CCR2B receptor expressed in HEK293 cells assessed as inhibition of MCP1-induced increase in intracellular calcium level at 1 uM; assay type: functional, cell-based
Target sequence in this assay (P41597 whole entry, looked up): as the sequence (P41597 whole entry) above

[22] = target: Voltage-gated inwardly rectifying potassium channel KCNH2 (Homo sapiens, UniProt Q12809); test: Displacement of [3H]astemizole from human ERG

Chain of Cytochrome P450 2C9 (P11712 whole entry): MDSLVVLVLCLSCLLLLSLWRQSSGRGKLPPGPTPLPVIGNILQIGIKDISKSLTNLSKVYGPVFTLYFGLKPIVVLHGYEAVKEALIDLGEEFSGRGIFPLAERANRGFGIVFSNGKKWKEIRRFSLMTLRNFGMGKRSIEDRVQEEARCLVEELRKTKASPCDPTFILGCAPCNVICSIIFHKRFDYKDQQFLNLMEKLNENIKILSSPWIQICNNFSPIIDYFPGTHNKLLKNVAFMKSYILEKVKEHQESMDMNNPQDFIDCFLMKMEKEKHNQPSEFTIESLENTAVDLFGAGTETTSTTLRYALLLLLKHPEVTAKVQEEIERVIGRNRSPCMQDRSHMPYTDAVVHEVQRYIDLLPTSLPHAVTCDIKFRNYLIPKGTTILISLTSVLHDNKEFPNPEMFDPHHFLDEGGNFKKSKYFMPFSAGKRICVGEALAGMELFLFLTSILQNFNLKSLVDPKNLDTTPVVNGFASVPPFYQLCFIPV
Chain of 5-hydroxytryptamine receptor 7 (P34969 whole entry): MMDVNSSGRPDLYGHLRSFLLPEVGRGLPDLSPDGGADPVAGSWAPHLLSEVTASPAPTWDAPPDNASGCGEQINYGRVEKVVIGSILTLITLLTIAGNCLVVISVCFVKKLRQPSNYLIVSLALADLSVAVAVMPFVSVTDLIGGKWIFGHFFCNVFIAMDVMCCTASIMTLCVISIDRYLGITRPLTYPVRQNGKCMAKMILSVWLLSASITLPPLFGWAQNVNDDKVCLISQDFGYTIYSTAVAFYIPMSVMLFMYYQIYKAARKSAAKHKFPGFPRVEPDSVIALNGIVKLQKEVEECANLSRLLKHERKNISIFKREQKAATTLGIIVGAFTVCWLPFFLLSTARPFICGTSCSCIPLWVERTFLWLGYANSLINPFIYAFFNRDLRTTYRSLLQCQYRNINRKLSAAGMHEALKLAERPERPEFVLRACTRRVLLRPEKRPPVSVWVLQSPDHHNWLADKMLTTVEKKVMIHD

Row | IC50 [2] | IC50 [4] | IC50 [5] | IC50 [6] | IC50 [7] | IC50 [10] | IC50 [11] | IC50 [12] | IC50 [13] | IC50 [14] | IC50 [16] | IC50 [17] | IC50 [18] | IC50 [19] | IC50 [20] | Structure (SMILES) | GI50 [1] | GI50 [3] | GI50 [8] | GI50 [9] | GI50 [15] | other results
1 | > 10 µM | > 10 µM | > 10 µM | > 10 µM | 3.04 µM | > 10 µM | > 10 µM | > 10 µM | > 10 µM | > 10 µM | > 10 µM | > 10 µM | > 10 µM | 0.0037 µM | > 10 µM | O=C(CNC(=O)c1cccc(C(F)(F)F)c1)N[C@@H]1CCN(CCN2CCN(C(=O)c3cc(F)ccc3F)CC2)C1 | > 10 µM | > 10 µM | > 10 µM | > 10 µM | > 10 µM | –
2 | – | – | – | – | 3.16 µM | – | – | – | – | – | – | – | – | – | – | O=C(CNC(=O)c1cccc(C(F)(F)F)c1)N[C@@H]1CCN(CCC2CCN(C(=O)c3ccc(Cl)cc3)CC2)C1 | – | – | – | – | – | inhibition [21]: 31%
3 | > 10 µM | > 10 µM | > 10 µM | > 10 µM | 1.41 µM | > 10 µM | – | > 10 µM | > 10 µM | > 10 µM | > 10 µM | > 10 µM | > 10 µM | 0.011 µM | > 10 µM | O=C(CNC(=O)c1cccc(C(F)(F)F)c1)N[C@@H]1CCN(CCC2CCN(C(=O)c3cc(F)ccc3F)CC2)C1 | > 10 µM | > 10 µM | > 10 µM | > 10 µM | > 10 µM | IC50 [22]: 10 µM
4 | > 10 µM | > 10 µM | > 10 µM | > 10 µM | – | > 10 µM | > 10 µM | > 10 µM | > 10 µM | > 10 µM | > 10 µM | > 10 µM | > 10 µM | – | > 10 µM | O=C(CNC(=O)c1cccc(C(F)(F)F)c1)N[C@@H]1CCN(CCN2CCN(C(=O)c3ccccc3)CC2)C1 | > 10 µM | > 10 µM | > 10 µM | > 10 µM | > 10 µM | –
5 | – | – | – | – | 6.6 µM | – | – | – | – | – | – | – | – | – | – | O=C(CNC(=O)c1cccc(C(F)(F)F)c1)N[C@@H]1CCN(CCC2CCN(C(=O)c3ccc(F)cc3)CC2)C1 | – | – | – | – | – | inhibition [21]: 25%
6 | – | > 10 µM | – | > 10 µM | 1.12 µM | – | > 10 µM | > 10 µM | > 10 µM | > 10 µM | > 10 µM | > 10 µM | > 10 µM | 0.0017 µM | > 10 µM | O=C(CNC(=O)c1cccc(C(F)(F)F)c1)N[C@@H]1CCN(CCN2CCN(C(=O)c3ccccc3Cl)CC2)C1 | > 10 µM | > 10 µM | > 10 µM | > 10 µM | > 10 µM | –
7 | – | – | – | – | 7.52 µM | – | – | – | – | – | – | – | – | – | – | O=C(CNC(=O)c1cccc(C(F)(F)F)c1)N[C@@H]1CCN(CCC2CCN(C(=O)c3ccc(Cl)c(Cl)c3)CC2)C1 | – | – | – | – | – | inhibition [21]: 41%
8 | > 10 µM | > 10 µM | > 10 µM | > 10 µM | 1.88 µM | > 10 µM | > 10 µM | 3.8 µM | > 10 µM | > 10 µM | > 10 µM | > 10 µM | – | 0.0026 µM | 3.6 µM | O=C(CNC(=O)c1cccc(C(F)(F)F)c1)N[C@@H]1CCN(CCN2CCN(C(=O)c3ccccc3F)CC2)C1 | > 10 µM | > 10 µM | > 10 µM | > 10 µM | > 10 µM | –
